Consider twelve compounds from US20240116985A1, “STAPLED PEPTIDES AND METHODS THEREOF” (priority 2020, published 2024).

This assay addresses T1, full-length beta-Catenin (Uniprot ID P35222) (Homo sapiens, UniProt P35222).
T1 construct: 10 nM full-length beta-Catenin (Uniprot ID P35222)
T1 sequence (P35222 1-781): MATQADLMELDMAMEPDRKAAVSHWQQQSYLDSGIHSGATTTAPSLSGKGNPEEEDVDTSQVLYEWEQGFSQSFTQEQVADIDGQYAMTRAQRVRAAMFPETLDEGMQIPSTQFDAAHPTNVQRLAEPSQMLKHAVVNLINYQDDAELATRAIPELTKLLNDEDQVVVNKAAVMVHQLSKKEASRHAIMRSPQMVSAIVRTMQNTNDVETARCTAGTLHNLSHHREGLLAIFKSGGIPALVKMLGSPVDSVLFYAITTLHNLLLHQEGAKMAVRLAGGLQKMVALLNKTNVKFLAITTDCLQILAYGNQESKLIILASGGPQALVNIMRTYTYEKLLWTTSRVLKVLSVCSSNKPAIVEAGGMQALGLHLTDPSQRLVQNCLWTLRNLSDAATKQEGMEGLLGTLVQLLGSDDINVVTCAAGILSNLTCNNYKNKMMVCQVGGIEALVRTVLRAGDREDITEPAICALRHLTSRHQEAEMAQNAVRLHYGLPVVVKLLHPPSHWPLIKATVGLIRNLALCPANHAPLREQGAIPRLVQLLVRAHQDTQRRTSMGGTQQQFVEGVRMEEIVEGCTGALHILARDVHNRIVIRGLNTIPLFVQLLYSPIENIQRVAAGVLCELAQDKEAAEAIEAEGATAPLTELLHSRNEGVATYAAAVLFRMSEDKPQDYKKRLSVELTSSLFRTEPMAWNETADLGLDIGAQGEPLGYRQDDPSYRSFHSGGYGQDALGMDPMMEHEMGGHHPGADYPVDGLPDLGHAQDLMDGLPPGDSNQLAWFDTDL
The assay can be described thus: Fluorescence polarization IC50 (beta-catenin / 5FAM-TCF4 10-53 competition). The assay is classed as binding. The note with it: fluorescence polarization; read-out: beta-Catenin FP IC50. For orientation: In fluorescence polarisation assays a small probe gives low polarisation when free and higher when bound to something large.

Molecules are shown by their SMILES.

One may read the IC50 as the midpoint of a concentration-inhibition curve. As for `CC(=O)N1CCC[C@]12CC=CCCCC1(CCCC=CCCCCCC[C@@](C)(C(=O)N[C@@H](Cc3ccccc3Cl)C(=O)N[C@@H](Cc3csc4ccccc34)C(=O)N[C@H](CO)[C@@H](C)O)NC(=O)[C@H](CCO)NC(=O)[C@H](Cc3ccccc3)NC(=O)[C@H](C)NC(=O)[C@H](C)NC(=O)[C@H](CC(=O)O)NC(=O)[C@H](CC(=O)O)NC1=O)NC(=O)[C@H](CC(C)(C)C)NC(=O)[C@H](CC(=O)O)NC2=O` (stereo partly drawn) [I-1491, Ac-PL3-Asp-Npg-B5-Asp-Asp-Ala-Ala-Phe-Hse-S8-2C1F-BztA-Thro1], the IC50 came out at 34 nM.

`CC(=O)N1CCC[C@]12CC=CCCCC1(CCCC=CCCCOC(=O)N3CC[C@@](C(=O)N[C@@H](Cc4ccsc4)C(=O)N[C@@H](Cc4csc5ccccc45)C(=O)N[C@@H](Cc4c[nH]nn4)C(N)=O)(C3)NC(=O)[C@H](CC(C)C)NC(=O)[C@H](Cc3ccccc3)NC(=O)[C@H](C)NC(=O)[C@H](C)NC(=O)[C@H](CC(=O)O)NC(=O)[C@H](CC(=O)O)NC1=O)NC(=O)[C@H](CC(C)(C)C)NC(=O)[C@H](CC(=O)O)NC2=O` (stereo partly drawn) [I-1498, Ac-PL3-Asp-Npg-B5-Asp-Asp-Ala-Ala-Phe-Leu-PyrS2-3Thi-BztA-4TriA-NH2]: the IC50 is 48 nM.

Consider `CC(=O)N1CCC[C@]12CC=CCCCC1(CCCC=CCCCOC(=O)N3CC[C@@](C(=O)N[C@@H](Cc4ccsc4)C(=O)N[C@@H](Cc4csc5ccccc45)C(=O)N[C@@H](CCC(N)=O)C(N)=O)(C3)NC(=O)[C@H](CC(C)C)NC(=O)[C@H](Cc3ccccc3)NC(=O)[C@H](CCCN3CCN(C)CC3)NC(=O)[C@H](C)NC(=O)[C@H](CC(=O)O)NC(=O)[C@H](CC(=O)O)NC1=O)NC(=O)[C@H](CC(C)(C)C)NC(=O)[C@H](CC(=O)O)NC2=O` (stereo partly drawn) [I-1503, Ac-PL3-Asp-Npg-B5-Asp-Asp-Ala-MePpzNva-Phe-Leu-PyrS2-3Thi-BztA-Gln-NH2], for which the IC50 came to 38 nM.

`CC(=O)N1CCC[C@]12CC=CCCCC1(CCCC=CCCCOC(=O)N3CC[C@@](C(=O)N[C@@H](Cc4ccsc4)C(=O)N[C@@H](Cc4csc5ccccc45)C(=O)N[C@@H](CCC(N)=O)C(N)=O)(C3)NC(=O)[C@H](CC(C)C)NC(=O)[C@H](Cc3ccccc3)NC(=O)[C@H](CCN3CCN(C)CC3)NC(=O)[C@H](C)NC(=O)[C@H](CC(=O)O)NC(=O)[C@H](CC(=O)O)NC1=O)NC(=O)[C@H](CC(C)(C)C)NC(=O)[C@H](CC(=O)O)NC2=O` (stereo partly drawn) [I-1506, Ac-PL3-Asp-Npg-B5-Asp-Asp-Ala-MePpzAbu-Phe-Leu-PyrS2-3Thi-BztA-Gln-NH2]: the IC50 was 89 nM.

For `CC(=O)N1CCC[C@]12CC=CCCCC1(CCCC=CCCCOC(=O)N3CC[C@@](C(=O)N[C@@H](Cc4ccsc4)C(=O)N[C@@H](Cc4csc5ccccc45)C(=O)N[C@@H](CCC(N)=O)C(N)=O)(C3)NC(=O)[C@H](CC(C)C)NC(=O)[C@H](Cc3ccccc3)NC(=O)[C@H](CC(=O)N3CCN(C)CC3)NC(=O)[C@H](C)NC(=O)[C@H](CC(=O)O)NC(=O)[C@H](CC(=O)O)NC1=O)NC(=O)[C@H](CC(C)(C)C)NC(=O)[C@H](CC(=O)O)NC2=O` (stereo partly drawn) [I-1508, Ac-PL3-Asp-Npg-B5-Asp-Asp-Ala-MePpzAsn-Phe-Leu-PyrS2-3Thi-BztA-Gln-NH2], the IC50 is 87 nM.

In the case of `CC(=O)N1CCC[C@]12CC=CCCCC1(CCCC=CCCCOC(=O)N3CC[C@@](C(=O)N[C@@H](Cc4ccsc4)C(=O)N[C@@H](Cc4csc5ccccc45)C(=O)N[C@@H](CCC(N)=O)C(N)=O)(C3)NC(=O)[C@H](CC(C)C)NC(=O)[C@H](Cc3ccccc3)NC(=O)[C@H](C)NC(=O)[C@H](C)NC(=O)[C@H](CC(=O)O)NC(=O)[C@H](CC(=O)O)NC1=O)NC(=O)[C@H](Cc1ccccc1)NC(=O)[C@H](CC(=O)O)NC2=O` (stereo partly drawn) [I-1509, Ac-PL3-Asp-Phe-B5-Asp-Asp-Ala-Ala-Phe-Leu-PyrS2-3Thi-BztA-Gln-NH2], the IC50 turned out to be 11 nM.

On to `CC(=O)N1CCC[C@]12CC=CCCCC1(CCCC=CCCCOC(=O)N3CC[C@@](C(=O)N[C@@H](Cc4ccsc4)C(=O)N[C@@H](Cc4csc5ccccc45)C(=O)N[C@@H](CCO)C(N)=O)(C3)NC(=O)[C@H](CC(C)C)NC(=O)[C@H](Cc3ccccc3)NC(=O)[C@H](C)NC(=O)[C@H](C)NC(=O)[C@H](CC(=O)O)NC(=O)[C@H](CC(=O)O)NC1=O)NC(=O)[C@H](CO)NC(=O)[C@H](CC(=O)O)NC2=O` (stereo partly drawn) [I-1514, Ac-PL3-Asp-Ser-B5-Asp-Asp-Ala-Ala-Phe-Leu-PyrS2-3Thi-BztA-Hse-NH2], for which the IC50 worked out at 27 nM.

Turning to `CC(=O)N1CCC[C@]12CC=CCCCC1(CCCC=CCCCOC(=O)N3CC[C@@](C(=O)N[C@@H](Cc4ccsc4)C(=O)N[C@@H](Cc4csc5ccccc45)C(=O)N[C@@H](CCO)C(N)=O)(C3)NC(=O)[C@H](CC(C)C)NC(=O)[C@H](Cc3ccccc3)NC(=O)[C@H](C)NC(=O)[C@H](C)NC(=O)[C@H](CC(=O)O)NC(=O)[C@H](CC(=O)O)NC1=O)NC(=O)[C@H](CC(N)=O)NC(=O)[C@H](CC(=O)O)NC2=O` (stereo partly drawn) [I-1518, Ac-PL3-Asp-Asn-B5-Asp-Asp-Ala-Ala-Phe-Leu-PyrS2-3Thi-BztA-Hse-NH2], the IC50 amounted to 23 nM.

`CC(=O)N1CCC[C@]12CC=CCCCC1(CCCC=CCCCCCC[C@@](C)(C(=O)N[C@@H](Cc3ccccc3)C(=O)N[C@@H](Cc3csc4ccccc34)C(=O)N[C@@H](CCC(N)=O)C(N)=O)NC(=O)[C@H](CC(C)C)NC(=O)[C@H](Cc3ccccc3)NC(=O)[C@H](C)NC(=O)[C@H](C)NC(=O)[C@H](CCC(=O)O)NC(=O)[C@H](CC(=O)O)NC1=O)NC(=O)[C@H](CCC(C)C)NC(=O)[C@H](CC(=O)O)NC2=O` (stereo partly drawn) [I-1536, Ac-PL3-Asp-Hleu-B5-Asp-Glu-Ala-Ala-Phe-Leu-S8-Phe-BztA-Gln-NH2]: the IC50 is 42 nM.

`CC(=O)N1CCC[C@]12CC=CCCCC1(CCCC=CCCCCCC[C@@](C)(C(=O)N[C@@H](Cc3ccccc3)C(=O)N[C@@H](Cc3csc4ccccc34)C(=O)N[C@@H](CCC(N)=O)C(N)=O)NC(=O)[C@H](CCC(N)=O)NC(=O)[C@H](Cc3ccccc3)NC(=O)[C@H](C)NC(=O)[C@H](C)NC(=O)[C@H](CCC(=O)O)NC(=O)[C@H](CC(=O)O)NC1=O)NC(=O)[C@H](CCC(N)=O)NC(=O)[C@H](CC(=O)O)NC2=O` (stereo partly drawn) [I-1540, Ac-PL3-Asp-Gln-B5-Asp-Glu-Ala-Ala-Phe-Gln-S8-Phe-BztA-Gln-NH2]: the IC50 was 17 nM.

Consider `CC(=O)N1CCC[C@]12CC=CCCCC1(CCCC=CCCCCCC[C@@](C)(C(=O)N[C@@H](Cc3ccccc3)C(=O)N[C@@H](Cc3csc4ccccc34)C(=O)N[C@@H](CCC(N)=O)C(N)=O)NC(=O)[C@H](CC(C)C)NC(=O)[C@H](Cc3ccccc3)NC(=O)[C@H](C)NC(=O)[C@H](C)NC(=O)[C@H](CCC(=O)O)NC(=O)[C@H](CC(=O)O)NC1=O)NC(=O)[C@H](CCC(N)=O)NC(=O)[C@H](CC(=O)O)NC2=O` (stereo partly drawn) [I-1541, Ac-PL3-Asp-Gln-B5-Asp-Glu-Ala-Ala-Phe-Leu-S8-Phe-BztA-Gln-NH2], for which the IC50 came out at 39 nM.

Regarding `CC(=O)N1CCC[C@]12CC=CCCCC1(CCCC=CCCCOC(=O)N3CC[C@@](C(=O)N[C@@H](Cc4ccsc4)C(=O)N[C@@H](Cc4csc5ccccc45)C(=O)N[C@@H](CCC(N)=O)C(N)=O)(C3)NC(=O)[C@H](CC(N)=O)NC(=O)[C@H](Cc3ccccc3)NC(=O)[C@H](C)NC(=O)[C@H](C)NC(=O)[C@H](CCC(N)=O)NC(=O)[C@H](CCC(N)=O)NC1=O)NC(=O)[C@H](CC(C)(C)C)NC(=O)[C@H](CC(=O)O)NC2=O` (stereo partly drawn) [I-1558, Ac-PL3-Asp-Npg-B5-Gln-Gln-Ala-Ala-Phe-Asn-PyrS2-3Thi-BztA-Gln-NH2], the IC50 is 678 nM.
